Results published in the supplement of paper PMC10307832.

Columns and labels:
Assay in all cases: relative viability (nuclei count vs DMSO), 5 days (fraction); higher = more cells survive
[1] = compound: CCN(CC)CCNC(=O)c1c(C)[nH]c(/C=C2\C(=O)Nc3ccc(F)cc32)c1C [Sunitinib] + CC(C)C[C@H](NC(=O)[C@H](Cc1ccccc1)NC(=O)c1cnccn1)B(O)O [Bortezomib] (partner 0.002 µM)
How it was run: (§1)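 Dosing by pin tool came one day after lung cancer cell lines were seeded in 1536-well plates, using either one drug or a fixed anchor-drug dose plus five library-drug doses (not always all listed) in √10 steps. After 5 days, nuclei were counted on 4× images. Relative viability is treated-well nuclei count divided by vehicle-well nuclei count, and values are medians of duplicate plates.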

[2] = compound: CCN(CC)CCNC(=O)c1c(C)[nH]c(/C=C2\C(=O)Nc3ccc(F)cc32)c1C [Sunitinib] + Nc1nc2[nH]cc(CCc3ccc(C(=O)N[C@@H](CCC(=O)O)C(=O)O)cc3)c2c(=O)[nH]1 [Pemetrexed] (partner 0.2 µM)
How it was run: as §1

[3] = compound: CCN(CC)CCNC(=O)c1c(C)[nH]c(/C=C2\C(=O)Nc3ccc(F)cc32)c1C [Sunitinib] + O=C(c1cc(Cc2n[nH]c(=O)c3ccccc23)ccc1F)N1CCN(C(=O)C2CC2)CC1 [Olaparib] (partner 8 µM)
How it was run: as §1

[4] = compound: CCN(CC)CCNC(=O)c1c(C)[nH]c(/C=C2\C(=O)Nc3ccc(F)cc32)c1C [Sunitinib] + Cc1nc(NC(=O)N2CCC[C@H]2C(N)=O)sc1-c1ccnc(C(C)(C)C(F)(F)F)c1 [Alpelisib] (partner 2 µM)
How it was run: as §1

Cell Line | relative viability ([1]; first compound 0.02 µM) | relative viability ([1]; first compound 0.06325 µM) | relative viability ([1]; first compound 0.2 µM) | relative viability ([1]; first compound 0.6325 µM) | relative viability ([1]; first compound 2 µM) | relative viability ([2]; first compound 0.02 µM) | relative viability ([2]; first compound 0.06325 µM) | relative viability ([2]; first compound 0.2 µM) | relative viability ([2]; first compound 0.6325 µM) | relative viability ([2]; first compound 2 µM) | relative viability ([3]; first compound 0.02 µM) | relative viability ([3]; first compound 0.06325 µM) | relative viability ([3]; first compound 0.2 µM) | relative viability ([3]; first compound 0.6325 µM) | relative viability ([3]; first compound 2 µM) | relative viability ([4]; first compound 0.02 µM) | relative viability ([4]; first compound 0.06325 µM) | relative viability ([4]; first compound 0.2 µM) | relative viability ([4]; first compound 0.6325 µM) | relative viability ([4]; first compound 2 µM)
ChaGo-K-1 | 1.04 | 1.03 | 1.03 | 0.977 | 1.05 | 0.263 | 0.268 | 0.258 | 0.255 | 0.258 | 0.483 | 0.466 | 0.414 | 0.435 | 0.441 |  |  |  |  | 
EBC-1 | 0.475 | 0.573 | 0.65 | 0.532 | 0.534 |  |  |  |  |  | 0.758 | 0.689 | 0.727 | 0.726 | 0.739 | 0.857 | 0.971 | 0.871 | 0.87 | 1
EKVX | 1.07 | 1.04 | 1.18 | 1.06 | 1.09 | 0.373 | 0.383 | 0.425 | 0.416 | 0.406 | 0.941 | 0.991 | 0.952 | 0.957 | 0.97 | 0.907 |  |  | 0.996 | 0.909
EMC-BAC-2 | 1.06 | 1.14 | 1.26 | 1.05 | 1.12 | 0.427 | 0.426 | 0.472 | 0.481 | 0.464 | 0.462 | 0.52 | 0.539 | 0.529 | 0.582 | 0.712 | 0.742 | 0.901 | 0.791 | 0.72
EPLC-272H | 0.648 | 1.17 | 0.915 | 1.05 | 0.851 | 0.39 | 0.298 | 0.314 | 0.42 | 0.363 | 0.764 | 0.998 | 1.01 | 0.746 | 0.388 | 0.885 | 0.668 | 1 | 1 | 0.729
H3255 | 0.817 |  | 0.827 | 0.995 | 0.822 | 0.557 | 0.558 | 0.567 | 0.552 | 0.612 | 0.541 | 0.605 | 0.6 | 0.593 | 0.56 | 0.696 | 0.756 | 0.776 | 0.891 | 0.707
HARA | 1 | 1.17 | 1.32 | 1.22 | 1.14 | 0.26 | 0.274 | 0.241 | 0.222 | 0.263 | 0.718 | 0.966 | 0.801 | 0.786 | 0.7 | 0.816 | 0.947 | 0.979 |  | 0.743
HCC-15 | 0.941 | 1.16 | 1.17 | 1.02 | 1.05 | 0.236 | 0.228 | 0.222 | 0.204 | 0.248 | 0.762 | 0.742 | 0.807 | 0.768 | 0.625 | 0.831 |  | 1.01 | 0.872 | 0.94
HCC-44 | 0.893 | 0.898 | 1.1 |  | 0.88 | 0.615 | 0.607 | 0.676 | 0.68 | 0.692 | 0.958 | 0.97 | 0.979 | 1 | 1.05 | 0.72 | 0.909 | 0.966 | 0.863 | 0.826
